≈ marks a conversion by molar mass, not a printed value. Like-named read-outs stand apart in the source and are kept apart here.
Assays:
Format in all cases: cell-based
[1] = tested on: 100 A. baumannii strains (50 MDR, 50 non-MDR); assay: MIC broth microdilution at IHMA Europe, panel of 100 strains; conditions: for MIC / MIC50 / MIC90: Acinetobacter baumannii; for MIC50: read-out: MIC 50; for MIC90: read-out: MIC 90
[2] = tested on: E. coli ATCC 35218; assay: IHMA QC MIC; conditions: Escherichia coli, ATCC35218; read-out: MIC (QC, repeated tests)
Protocol: The panel of Hungarian clinical isolates and controls measured following the same method as detailed above, and albeit measurements were carried out in 384-well microtiter plates (Corning Inc.).

[3] = tested on: E. coli ATCC 25922; assay: IHMA QC MIC; conditions: Escherichia coli, ATCC25922; read-out: MIC (QC, repeated tests)

MIC ([1]; A. baumannii IHMA 2177232, Lithuania 2020, MDR, read-out: MIC): 32 µg/mL (≈ 66.6 µM)
MIC ([1]; A. baumannii IHMA 2177489, Lithuania 2020, MDR, read-out: MIC): > 32 µg/mL
MIC ([1]; A. baumannii IHMA 2178574, Ukraine 2020, Non-MDR, read-out: MIC): ≤ 0.25 µg/mL
MIC ([1]; A. baumannii IHMA 2180134, Malaysia 2020, Non-MDR, read-out: MIC): 1 µg/mL (≈ 2.08 µM)
MIC ([1]; A. baumannii IHMA 2180142, Malaysia 2020, MDR, read-out: MIC): > 32 µg/mL
MIC ([1]; A. baumannii IHMA 2181370, Morocco 2020, MDR, read-out: MIC): > 32 µg/mL
MIC ([1]; A. baumannii IHMA 2183849, Argentina 2020, Non-MDR, read-out: MIC): 1 µg/mL (≈ 2.08 µM)
MIC ([1]; A. baumannii IHMA 2184382, Japan 2020, Non-MDR, read-out: MIC): 1 µg/mL (≈ 2.08 µM)
MIC ([1]; A. baumannii IHMA 2193375, Venezuela 2020, MDR, read-out: MIC): > 32 µg/mL
MIC ([1]; A. baumannii IHMA 2193485, Venezuela 2020, Non-MDR, read-out: MIC): 1 µg/mL (≈ 2.08 µM)
MIC ([1]; A. baumannii IHMA 2193607, Venezuela 2020, MDR, read-out: MIC): > 32 µg/mL
MIC ([1]; A. baumannii IHMA 2196914, South Africa 2020, MDR, read-out: MIC): 32 µg/mL (≈ 66.6 µM)
MIC ([1]; A. baumannii IHMA 2196959, South Africa 2020, MDR, read-out: MIC): > 32 µg/mL
MIC ([1]; A. baumannii IHMA 2203763, Spain 2020, MDR, read-out: MIC): > 32 µg/mL
MIC ([1]; A. baumannii IHMA 2205144, Korea, South 2020, MDR, read-out: MIC): 32 µg/mL (≈ 66.6 µM)
MIC ([1]; A. baumannii IHMA 2206459, Taiwan 2020, MDR, read-out: MIC): > 32 µg/mL
MIC ([1]; A. baumannii IHMA 2206507, Taiwan 2020, Non-MDR, read-out: MIC): 0.5 µg/mL (≈ 1.04 µM)
MIC ([1]; A. baumannii IHMA 2215307, Hong Kong 2020, Non-MDR, read-out: MIC): 1 µg/mL (≈ 2.08 µM)
MIC ([1]; A. baumannii IHMA 2216586, Taiwan 2020, MDR, read-out: MIC): 32 µg/mL (≈ 66.6 µM)
MIC ([1]; A. baumannii IHMA 2223200, Colombia 2020, Non-MDR, read-out: MIC): 1 µg/mL (≈ 2.08 µM)
MIC ([1]; A. baumannii IHMA 2224017, Panama 2020, MDR, read-out: MIC): 32 µg/mL (≈ 66.6 µM)
MIC ([1]; A. baumannii IHMA 2224303, Panama 2020, Non-MDR, read-out: MIC): 4 µg/mL (≈ 8.32 µM)
MIC ([1]; A. baumannii IHMA 2231797, Greece 2020, MDR, read-out: MIC): > 32 µg/mL
MIC ([1]; A. baumannii IHMA 2233099, Guatemala 2020, MDR, read-out: MIC): > 32 µg/mL
MIC ([1]; A. baumannii IHMA 2233430, Kazakhstan 2020, MDR, read-out: MIC): > 32 µg/mL
MIC ([1]; A. baumannii IHMA 2238964, Thailand 2020, MDR, read-out: MIC): > 32 µg/mL
MIC ([1]; A. baumannii IHMA 2239052, Thailand 2020, Non-MDR, read-out: MIC): 0.5 µg/mL (≈ 1.04 µM)
MIC ([1]; A. baumannii IHMA 2261633, Canada 2020, Non-MDR, read-out: MIC): 0.5 µg/mL (≈ 1.04 µM)
MIC ([1]; A. baumannii IHMA 2274234, South Africa 2020, MDR, read-out: MIC): 32 µg/mL (≈ 66.6 µM)
MIC ([1]; A. baumannii IHMA 2274364, South Africa 2020, MDR, read-out: MIC): > 32 µg/mL
MIC ([1]; A. baumannii IHMA 2275237, Chile 2020, Non-MDR, read-out: MIC): 1 µg/mL (≈ 2.08 µM)
MIC ([1]; A. baumannii IHMA 2275751, Jordan 2020, MDR, read-out: MIC): > 32 µg/mL
MIC ([1]; A. baumannii IHMA 2316205, United States 2020, MDR, read-out: MIC): > 32 µg/mL
MIC ([1]; MDR n = 50, read-out: MAX (maximum MIC; all strains inhibited)): > 32 µg/mL
MIC50 ([1]; MDR n = 50): > 32 µg/mL
MIC90 ([1]; MDR n = 50): > 32 µg/mL
MIC ([1]; all isolates n = 100, read-out: MAX (maximum MIC; all strains inhibited)): > 32 µg/mL
MIC50 ([1]; all isolates n = 100): 8 µg/mL (≈ 16.6 µM)
MIC90 ([1]; all isolates n = 100): > 32 µg/mL
MIC ([1]; all isolates n = 100, read-out: MIN (minimum MIC)): ≤ 0.25 µg/mL
MIC ([1]; non-MDR n = 50, read-out: MAX (maximum MIC)): 8 µg/mL (≈ 16.6 µM)
MIC50 ([1]; non-MDR n = 50): 1 µg/mL (≈ 2.08 µM)
MIC90 ([1]; non-MDR n = 50): 4 µg/mL (≈ 8.32 µM)
MIC ([1]; non-MDR n = 50, read-out: MIN (minimum MIC)): ≤ 0.25 µg/mL
MIC [2]: ≤ 0.25 µg/mL
MIC [3]: ≤ 0.25 µg/mL
Structure (SMILES): CO/N=C(\C(=O)N[C@@H]1C(=O)N2C(C(=O)[O-])=C(C[N+]3(C)CCCC3)CS[C@H]12)c1csc(N)n1 [Cefepime, cefepime]
Percentage I ([1]; MDR n = 50): 6%
Percentage S ([1]; MDR n = 50): 0%
Percentage I ([1]; all n = 100, CLSI breakpoints): 3%
Percentage R ([1]; all n = 100, CLSI breakpoints): 47%
Percentage S ([1]; all n = 100, CLSI breakpoints): 50%
Percentage I ([1]; non-MDR n = 50): 0%
Percentage R ([1]; non-MDR n = 50): 0%

Reference: PMC10041525, “New Dual Inhibitors of Bacterial Topoisomerases with Broad-Spectrum Antibacterial Activity and In Vivo Efficacy against Vancomycin-Intermediate Staphylococcus aureus” (Journal of Medicinal Chemistry, 2023)
